Measurements taken from patent US7605270B2, “Polymorphic forms of (S).-tetrahydrofuran-3-yl-3-(3-(3-methoxy-4-(oxazol-5-yl) phenyl) ureido) benzylcarbamate” (Vertex Pharmaceuticals Incorporated, priority 2005, dated 2009).
Counter-ions that a name gives are not always drawn.

Assays:
[1] = target: IMPDH human type II (Homo sapiens, UniProt P12268); settings: general statement; disclosed in the Compound 1 patents; cited from earlier work
[2] = Hygroscopicity: water/weight uptake at 90% relative humidity; type: physicochemical; settings: for water uptake (weight uptake): at 90% relative humidity (RH) at 25° C.; for hygroscopicity (in words): judged from uptake at 90% relative humidity
[3] = Maturation study of Form A1: slurry in solvent, excess solid analysed by XRPD; type: physicochemical; settings: about 10 mg slurried in 500 μl solvent, shaken at 25-30° C. for 24 hrs
Description: X-ray powder diffraction patterns for the samples were acquired on a Bruker AXS/Siemens D5000 diffractometer using CuKα radiation (40 kV, 40 mA), ?-? goniometer, automatic divergence and receiving slits, a graphite secondary monochromator and a scintillation counter. The data were collected over an angular range of 2° to 42° 2? in continuous scan mode using a step size of 0.02° 2? and a step time of 1 second. Samples run under ambient conditions were prepared as flat plate specimens using powder as received without grinding. Approximately 25-50 mg of the sample was gently packed into 12 mm diameter, 0.5 mm deep cavities cut into polished, zero-background (510) silicon wafers (The Gem Dugout, 1652 Princeton Drive, Pennsylvania State College, PA 16803, USA). All specimens were run both stationary and rotated in their own plane during analysis. A further specimen was run using silicon powder as an internal standard to correct for any peak displacement. Samples run under non-ambient conditions were packed into a stainless steel cavity sample holder equipped with a Pt 100 thermocouple for temperature monitoring. Low temperature data were recorded using an Anton Paar TTK450 variable temperature camera attached to the Bruker AXS/Siemens D5000 diffractometer. […] The excess solid was removed by filtration and analysed by XRPD.

| water uptake (weight uptake) [2] | hygroscopicity (in words) [2] | SMILES | also measured |
| --- | --- | --- | --- |
|  |  | COc1cc(NC(=O)Nc2cccc(CNC(=O)O[C@H]3CCOC3)c2)ccc1-c1cnco1 [Compound 1, (S)-tetrahydrofuran-3-yl 3-(3-(3-methoxy-4-(oxazol-5-yl)phenyl)ureido)benzylcarbamate] | IMPDH inhibition (in words) [1]: potent IMPDH inhibitor |
| less than 0.5% | non-hygroscopic | COc1cc(NC(=O)Nc2cccc(CNC(=O)O[C@H]3CCOC3)c2)ccc1-c1cnco1 [Form A1, (S)-tetrahydrofuran-3-yl 3-(3-(3-methoxy-4-(oxazol-5-yl)phenyl)ureido)benzylcarbamate] | XRPD patterns observed after maturation, all 31 solvents [3]: consistent with the pattern of Form A1 |
| 3% | moderately hygroscopic | COc1cc(NC(=O)Nc2cccc(CNC(=O)O[C@H]3CCOC3)c2)ccc1-c1cnco1 [Form C3, (S)-tetrahydrofuran-3-yl 3-(3-(3-methoxy-4-(oxazol-5-yl)phenyl)ureido)benzylcarbamate] |  |
|  |  | COc1cc(NC(=O)Nc2cccc(CNC(=O)O[C@H]3CCOC3)c2)ccc1-c1cnco1 [Form E5 HCl salt, (S)-tetrahydrofuran-3-yl 3-(3-(3-methoxy-4-(oxazol-5-yl)phenyl)ureido)benzylcarbamate, HCl salt] | uptake ([2]; at 90% relative humidity): 22 % w/w; hygroscopicity (in words) ([2]; HCl salt): highly hygroscopic |
